In patent publication US10329272B2 (priority 2015, dated 2019) one finds melting point and inhibition of growth data, which are given here for 13 compounds.

Some results are limits rather than exact numbers.

Data set [1] relates to Botryotinia fuckeliana (Botrytis cinerea). Nature of the data set: Botryotinia fuckeliana (Botrytis cinerea)/Liquid Culture (Gray Mould). The class given is cell-based. Conditions: liquid culture, growth inhibition photometrically 3-4 days after application, compared to untreated control. The procedure:
Biological Examples Botryotinia fuckeliana (Botrytis cinerea)/Liquid Culture (Gray Mould)
Conidia of the fungus from cryogenic storage are directly mixed into nutrient broth (Vogels broth). After placing a (DMSO) solution of test compound into a microtiter plate (96-well format), the nutrient broth containing the fungal spores is added. The test plates are incubated at 24° C. and the inhibition of growth is determined photometrically 3-4 days after application.

Data set [2] concerns Magnaporthe grisea (Pyricularia oryzae). Nature of the data set: microbe, parasite or virus in culture. The following applies: read-out: control of Magnaporthe grisea. The class given is cell-based.
Data set [3] deals with Monographella nivalis (Microdochium nivale). Nature of the data set: Monographella Nivalis (Microdochium Nivale)/Liquid Culture (Foot Rot Cereals). The following applies: liquid culture, growth inhibition photometrically 4-5 days after application, compared to untreated control. In kind it is cell-based. The procedure:
Monographella Nivalis (Microdochium Nivale)/Liquid Culture (Foot Rot Cereals)
Conidia of the fungus from cryogenic storage are directly mixed into nutrient broth (PDB potato dextrose broth). After placing a (DMSO) solution of test compound into a microtiter plate (96-well format), the nutrient broth containing the fungal spores is added. The test plates are incubated at 24° C. and the inhibition of growth is determined photometrically 4-5 days after application.

A further data set deals with Sclerotinia sclerotiorum. Kind of data set: Sclerotinia sclerotiorum/Liquid Culture (Cottony Rot). The class given is cell-based. Conditions: liquid culture, growth inhibition photometrically 3-4 days after application, compared to untreated control. The protocol:
Sclerotinia sclerotiorum/Liquid Culture (Cottony Rot)
Mycelia fragments of a newly grown liquid culture of the fungus are directly mixed into nutrient broth (Vogels broth). After placing a (DMSO) solution of test compound into a microtiter plate (96-well format) the nutrient broth containing the fungal material is added. The test plates are incubated at 24° C. and the inhibition of growth is determined photometrically 3-4 days after application.

Data set [4] deals with Glomerella lagenarium (Colletotrichum lagenarium). Kind of data set: Glomerella Lagenarium (Colletotrichum Lagenarium)/Liquid Culture (Anthracnose). In kind it is cell-based. Conditions: Colletotrichum orbiculare, liquid culture, growth inhibition photometrically 3-4 days after application, compared to untreated control. The procedure:
Glomerella Lagenarium (Colletotrichum Lagenarium)/Liquid Culture (Anthracnose)
Conidia of the fungus from cryogenic storage are directly mixed into nutrient broth (PDB potato dextrose broth). After placing a (DMSO) solution of test compound into a microtiter plate (96-well format), the nutrient broth containing the fungal spores is added. The test plates are incubated at 24° C. and the inhibition of growth is measured photometrically 3-4 days after application.

`Cn1nc2c(Br)cccc2c1C1=NC(C)(C)C(O)c2ccccc21` (stereo not shown) showed a melting point of 215 to 217 °C.

`Cn1nc2c(Br)cccc2c1C1=NC(C)(C)C(O)c2c(F)cccc21` (stereo not shown): the melting point is 103 to 105 °C.

Regarding `Cn1nc2ccccc2c1C1=NC(C)(C)C(=O)c2ccccc21`, the melting point was 169 to 170 °C.

With `Cn1nc2ccccc2c1C1=NC(C)(C)C(Br)c2ccccc21` (stereo not shown), the melting point was in the range of 165 to 166 °C.

For the compound `Cn1nc2ccccc2c1C1=NC(C)(C)Cc2ccccc21` [Compound E-2, 3,3-dimethyl-1-(2-methylindazol-3-yl)-4H-isoquinoline], the melting point lay within 107 to 108 °C. The inhibition of growth at 20 ppm in data set [1] was at least 80%. In addition, the inhibition of growth at 20 ppm in data set [2] is at least 80%. Moreover, the inhibition of growth at 20 ppm in data set [3] is at least 80%. The inhibition of growth at 20 ppm in the data set on Sclerotinia sclerotiorum is at least 80%. In data set [4], this compound gave an inhibition of growth at 20 ppm of at least 80%.

On to `Cn1nc2c(Br)cccc2c1C1=NC(C)(C)C(=O)c2ccccc21` [Compound E-6, 1-(7-bromo-2-methyl-indazol-3-yl)-3,3-dimethyl-isoquinolin-4-one], for which the inhibition of growth at 20 ppm in data set [1], in data set [2] and in data set [3] was at least 80% each time.

`Cn1nc2c(Br)cccc2c1C1=NC(C)(C)C(Br)c2ccccc21` (stereo not shown) [Compound E-7, 4-bromo-1-(7-bromo-2-methyl-indazol-3-yl)-3,3-dimethyl-4H-isoquinoline] had an inhibition of growth at 20 ppm in data set [1] of at least 80%.

Turning to `Cn1nc2ccccc2c1C1=NC(C)(C)C(F)(F)c2ccccc21` [Compound E-13, 4,4-difluoro-3,3-dimethyl-1-(2-methylindazol-3-yl)isoquinoline], the inhibition of growth at 20 ppm (in data set [1]; in data set [2]; in data set [3]; with Sclerotinia sclerotiorum; in data set [4]) was at least 80% each time.

`CC1(C)N=C(c2n[nH]c3ccccc23)c2cccc(F)c2C1(C)C` [Compound E-14, 5-fluoro-1-(1H-indazol-3-yl)-3,3,4,4-tetramethyl-isoquinoline] displayed a melting point of 174 to 177 °C. Moreover, the inhibition of growth at 20 ppm in data set [1] was at least 80%.

The compound `Cn1nc2c(Br)cccc2c1C1=NC(C)(C)Cc2c(F)cccc21` [Compound E-15, 1-(7-bromo-2-methyl-indazol-3-yl)-5-fluoro-3,3-dimethyl-4H-isoquinoline] came in with a melting point of 168 to 169 °C. For the same compound, the inhibition of growth at 20 ppm in data set [1] is at least 80%. Further, the inhibition of growth at 20 ppm in data set [2] is at least 80%. Moreover, the inhibition of growth at 20 ppm in data set [3] is at least 80%.

Consider `Cn1nc2c(Br)cccc2c1C1=NC(C)(C)C(=O)c2c(F)cccc21` [Compound E-18, 1-(7-bromo-2-methyl-indazol-3-yl)-5-fluoro-3,3-dimethyl-isoquinolin-4-one], for which the melting point was 260 to 261 °C. Besides, the inhibition of growth at 20 ppm in data set [3] was at least 80%.

On to `Cn1nc2c(Br)cccc2c1C1=NC(C)(C)C(F)(F)c2c(F)cccc21` [Compound E-19, 1-(7-bromo-2-methyl-indazol-3-yl)-4,4,5-trifluoro-3,3-dimethyl-isoquinoline], for which the melting point was in the range of 198 to 199 °C. Besides, the inhibition of growth at 20 ppm in data set [1] is at least 80%. The inhibition of growth at 20 ppm in data set [2] was at least 80%. The compound further came in with an inhibition of growth at 20 ppm in data set [3] of at least 80%. Moreover, in data set [4], the inhibition of growth at 20 ppm was at least 80%.

Consider `Cn1nc2c(Cl)c(Cl)ccc2c1C1=NC(C)(C)Cc2ccccc21` [Compound E-24, 1-(6,7-dichloro-2-methyl-indazol-3-yl)-3,3-dimethyl-4H-isoquinoline], for which the melting point lay within 197 to 199 °C. In data set [1], this compound returned an inhibition of growth at 20 ppm of at least 80%.
